Data: ChEMBL document CHEMBL5532748, “Design, synthesis and antibacterial activity evaluation of ebselen derivatives in NDM-1 producing bacteria” (RSC Med Chem, 2024)
Values after ≈ are worked out from the molar mass of the structure shown. Active and inactive are the calls of the source. The rule behind the calls is not given here.

Experiments:
Escherichia coli [1] = assay: Antibacterial activity against Escherichia coli TG-1 transfected with Klebsiella pneumoniae full-length NDM-1 beta-lactamase gene; type: functional
Escherichia coli [2] = assay: Antibacterial activity against Escherichia coli TG-1 transfected with Klebsiella pneumoniae full-length NDM-1 beta lactamase gene incubated in presence of meropenem; type: functional
Escherichia coli [3] = assay: Synergistic antibacterial activity against Escherichia coli TG-1 transfected with Klebsiella pneumoniae full-length NDM-1 beta lactamase gene assessed as fractional inhibitory concentration index in presence of meropenem; type: functional
Escherichia coli [4] = assay: Antibacterial activity against Escherichia coli BJE-4 expressing NDM-1 gene; type: functional
Escherichia coli [5] = assay: Antibacterial activity against Escherichia coli BJE-4 expressing NDM-1 gene in presence of meropenem; type: functional
Escherichia coli [6] = assay: Synergistic antibacterial activity against Escherichia coli BJE-4 expressing NDM-1 gene assessed as fractional inhibitory concentration index in presence of meropenem; type: functional
Escherichia coli [7] = assay: Antibacterial activity against Escherichia coli producing NDM-1 and CTX-M-15 beta lactamases; type: functional
Escherichia coli [8] = assay: Antibacterial activity against Escherichia coli producing NDM-1, CTX-M-15 and SHV-12 beta lactamases; type: functional
Citrobacter freundii [9] = assay: Antibacterial activity against Citrobacter freundii producing NDM-1 and SHV-12 beta-lactamases; type: functional
Citrobacter freundii [10] = assay: Antibacterial activity against Citrobacter freundii producing NDM-1, CTX-M-3 and KPC-2 beta-lactamases; type: functional
Enterobacter cloacae [11] = assay: Antibacterial activity against Enterobacter cloacae producing NDM-1, CTX-M-14 and TEM-1 beta-lactamases; type: functional
Enterobacter cloacae [12] = assay: Antibacterial activity against Enterobacter cloacae producing NDM-1, IMP-4 and TEM-1 beta-lactamases; type: functional
Escherichia coli [13] = assay: Antibacterial activity against Escherichia coli TG-1; type: functional
Enterobacter cloacae [14] = assay: Antibacterial activity against Enterobacter cloacae producing NDM-1, TEM-1 and SHV-12 beta-lactamases; type: functional
Klebsiella pneumoniae = assay: Antibacterial activity against Klebsiella pneumoniae producing NDM-1, KPC-2 and SHV-12 beta-lactamases; type: functional
Caco-2 = assay: Antibacterial activity against Salmonella lomita SL131 infected in human Caco-2 cells assessed as reduction in bacterial survival rate at 64 ug/ml incubated for 6 hrs by agar dilution method; type: functional, cell-based; details: Salmonella enterica subsp. enterica serovar Lomita, dose 64.0 µg/ml
[15] = target: Metallo-beta-lactamase type 2 (Bacteria, UniProt C7C422); assay: Inhibition of NDM-1 (unknown origin) using nitrocefin as substrate incubated for 15 to 60 mins by absorption based analysis
Sequence of Metallo-beta-lactamase type 2 (C7C422 whole entry): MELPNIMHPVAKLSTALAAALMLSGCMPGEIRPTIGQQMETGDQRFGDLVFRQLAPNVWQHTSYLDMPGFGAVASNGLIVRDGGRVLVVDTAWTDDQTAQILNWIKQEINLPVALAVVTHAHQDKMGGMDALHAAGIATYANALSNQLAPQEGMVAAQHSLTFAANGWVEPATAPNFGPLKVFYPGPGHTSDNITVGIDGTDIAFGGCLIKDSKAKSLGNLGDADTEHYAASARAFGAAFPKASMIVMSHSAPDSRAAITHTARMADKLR

SMILES | MIC (Escherichia coli [1]) | MIC (Escherichia coli [2]) | fractional inhibitory concentration index (FICI) (Escherichia coli [3]) | MIC (Escherichia coli [4]) | MIC (Escherichia coli [5]) | fractional inhibitory concentration index (FICI) (Escherichia coli [6]) | MIC (Escherichia coli [7]) | MIC (Escherichia coli [8]) | MIC (Citrobacter freundii [9]) | MIC (Citrobacter freundii [10]) | MIC (Enterobacter cloacae [11]) | MIC (Enterobacter cloacae [12]) | MIC (Escherichia coli [13]) | MIC (Enterobacter cloacae [14]) | MIC (Klebsiella pneumoniae) | Activity (Caco-2) | IC50 [15]
CC(C)(C)OC(=O)N1CCC(n2[se]c3ccccc3c2=O)CC1 | > 64 µg/mL | 16 µg/mL | 0.5 | > 16 µg/mL | 8 µg/mL | 0.625 | – | – | – | – | – | – | – | – | – | – | –
COc1ccc(S(=O)(=O)NCCn2[se]c3ccccc3c2=O)cc1 | > 64 µg/mL | ≤ 8 µg/mL | 0.25 | > 16 µg/mL | 8 µg/mL | 0.625 | – | – | – | – | – | – | – | – | – | – | –
CN(C)S(=O)(=O)NCCn1[se]c2ccccc2c1=O | > 64 µg/mL | ≤ 8 µg/mL | 0.25 | > 16 µg/mL | 8 µg/mL | 0.625 | – | – | – | – | – | – | – | – | – | – | –
CC(C)(C)OC(=O)N1CC[C@@H](n2[se]c3ccccc3c2=O)C1 | > 64 µg/mL | ≤ 8 µg/mL | 0.25 | > 16 µg/mL | 8 µg/mL | 0.625 | – | – | – | – | – | – | – | – | – | – | –
C[C@@H](O)[C@H]1C(=O)N2C(C(=O)O)=C(S[C@@H]3CN[C@H](C(=O)N(C)C)C3)[C@H](C)[C@H]12 [MEROPENEM] | > 64 µg/mL | – | – | > 16 µg/mL | – | – | > 64 µg/mL | > 64 µg/mL | 64 µg/mL (≈ 167 µM) | > 64 µg/mL | 64 µg/mL (≈ 167 µM) | 64 µg/mL (≈ 167 µM) | 0.5 µg/mL (≈ 1.3 µM) | 64 µg/mL (≈ 167 µM) | > 64 µg/mL | inactive | –
CC(C)(C)C(=O)NCCCn1[se]c2ccccc2c1=O | > 64 µg/mL | 16 µg/mL | 0.5 | > 16 µg/mL | 8 µg/mL | 0.625 | – | – | – | – | – | – | – | – | – | – | –
CC(C)(C)OC(=O)NCCCCCn1[se]c2ccccc2c1=O | > 64 µg/mL | 16 µg/mL | 0.5 | > 16 µg/mL | 8 µg/mL | 0.625 | – | – | – | – | – | – | – | – | – | – | –
CCc1ccc(-n2[se]c3ccccc3c2=O)cc1 | > 64 µg/mL | 64 µg/mL | 2 | > 16 µg/mL | 8 µg/mL | 0.625 | – | – | – | – | – | – | – | – | – | – | –
O=c1c2ccccc2[se]n1CCNS(=O)(=O)c1ccc(F)cc1 | > 64 µg/mL | ≤ 8 µg/mL | 0.25 | > 16 µg/mL | 8 µg/mL | 0.625 | – | – | – | – | – | – | – | – | – | – | –
CC(C)(C)OC(=O)NCCn1[se]c2ccccc2c1=O | > 64 µg/mL | 16 µg/mL | 0.5 | > 16 µg/mL | 8 µg/mL | 0.625 | – | – | – | – | – | – | – | – | – | – | 1.26 µM
CC(C)(C)OC(=O)NCCCn1[se]c2ccccc2c1=O | > 64 µg/mL | 16 µg/mL | 0.5 | > 16 µg/mL | 8 µg/mL | 0.625 | – | – | – | – | – | – | – | – | – | – | –
CSc1nnc(-n2[se]c3ccccc3c2=O)s1 | > 64 µg/mL | ≤ 8 µg/mL | 0.25 | > 16 µg/mL | 8 µg/mL | 0.625 | – | – | – | – | – | – | – | – | – | – | 8.8 µM
